Source: patent US9089572B2, “Inhibitors of p97” (California Institute of Technology, priority 2008, dated 2015)
Where “and” joins values, the source holds several entries; their conditions need not be identical. Equal values may be shown once.

Tests used:
[1] = target: wild type murine p97 (Mus musculus, UniProt Q01853); assay: In vitro ATP hydrolysis (malachite green ATPase assay), wild type murine p97; type: biochemical
Procedure: Compounds were tested for their ability to inhibit the ATPase activity of purified wild type murine p97 and T532C-Cdc48, a mutant of yeast Cdc48 in which the residue analogous to cysteine 522, threonine 532, was converted to cysteine.

[2] = target: Hamster NSF (Cricetulus griseus, UniProt P18708); assay: In vitro ATP hydrolysis, NSF; type: biochemical
Chain of Hamster NSF (P18708 whole entry): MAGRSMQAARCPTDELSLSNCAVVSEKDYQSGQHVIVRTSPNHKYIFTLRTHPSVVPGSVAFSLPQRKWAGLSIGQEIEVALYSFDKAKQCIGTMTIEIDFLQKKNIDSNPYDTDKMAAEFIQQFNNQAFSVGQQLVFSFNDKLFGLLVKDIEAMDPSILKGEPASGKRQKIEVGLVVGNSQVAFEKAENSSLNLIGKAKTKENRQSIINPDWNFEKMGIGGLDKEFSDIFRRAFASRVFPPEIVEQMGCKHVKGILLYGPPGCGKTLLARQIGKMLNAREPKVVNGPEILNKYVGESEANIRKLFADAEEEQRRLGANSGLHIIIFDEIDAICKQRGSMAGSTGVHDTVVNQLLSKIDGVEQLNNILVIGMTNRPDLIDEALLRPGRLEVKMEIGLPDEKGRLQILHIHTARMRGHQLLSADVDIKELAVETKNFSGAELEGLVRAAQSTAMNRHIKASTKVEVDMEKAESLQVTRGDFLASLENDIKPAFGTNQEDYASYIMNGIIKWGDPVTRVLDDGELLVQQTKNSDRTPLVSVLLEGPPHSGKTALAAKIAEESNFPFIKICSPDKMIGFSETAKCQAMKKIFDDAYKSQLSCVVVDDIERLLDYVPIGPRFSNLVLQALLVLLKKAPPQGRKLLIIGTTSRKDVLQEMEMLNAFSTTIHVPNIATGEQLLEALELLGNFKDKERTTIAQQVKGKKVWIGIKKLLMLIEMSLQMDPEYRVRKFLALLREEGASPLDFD
Procedure: To determine whether cysteine 522 is necessary for inhibition of p97 by compound 2, a mutant of p97 was constructed in which cysteine 522 was converted to either alanine (C522A-mp97) or threonine (C522T-mp97). The IC50 values of compound 2 were measured the against various enzymes during a 20-minute preincubation (see Table 2). Mutation of cysteine 522 in p97 to either alanine or threonine decreased sensitivity to compound 2 by greater than 100-fold. On the other hand, yeast Cdc48, which normally is quite resistant to compound 2, became nearly 30-fold more sensitive to the compound upon introduction of a cysteine in place of threonine 532.
To further address the specificity of inhibition by compound 2, its activity against two other AAA ATPases, NSF and the 26S proteasome, was assayed. Although NSF is known to be sensitive to thiol-reactive agents, it was more than 100-fold less sensitive to compound 2 than p97 (Table 2). […] The results with NSF and the 26S proteasome are noteworthy because both the active D1 domain of NSF and the Rpt3 subunit of the 26S proteasome have a cysteine in the position analogous to cysteine 522 of p97 (FIG. 3).

[3] = target: cysteine 522 of p97 (Mus musculus, UniProt Q01853); assay: Tandem mass spectrometry of tryptic peptides of inhibited p97; type: binding; conditions: trypsin digest, HPLC
Chain of cysteine 522 of p97 (Q01853 whole entry): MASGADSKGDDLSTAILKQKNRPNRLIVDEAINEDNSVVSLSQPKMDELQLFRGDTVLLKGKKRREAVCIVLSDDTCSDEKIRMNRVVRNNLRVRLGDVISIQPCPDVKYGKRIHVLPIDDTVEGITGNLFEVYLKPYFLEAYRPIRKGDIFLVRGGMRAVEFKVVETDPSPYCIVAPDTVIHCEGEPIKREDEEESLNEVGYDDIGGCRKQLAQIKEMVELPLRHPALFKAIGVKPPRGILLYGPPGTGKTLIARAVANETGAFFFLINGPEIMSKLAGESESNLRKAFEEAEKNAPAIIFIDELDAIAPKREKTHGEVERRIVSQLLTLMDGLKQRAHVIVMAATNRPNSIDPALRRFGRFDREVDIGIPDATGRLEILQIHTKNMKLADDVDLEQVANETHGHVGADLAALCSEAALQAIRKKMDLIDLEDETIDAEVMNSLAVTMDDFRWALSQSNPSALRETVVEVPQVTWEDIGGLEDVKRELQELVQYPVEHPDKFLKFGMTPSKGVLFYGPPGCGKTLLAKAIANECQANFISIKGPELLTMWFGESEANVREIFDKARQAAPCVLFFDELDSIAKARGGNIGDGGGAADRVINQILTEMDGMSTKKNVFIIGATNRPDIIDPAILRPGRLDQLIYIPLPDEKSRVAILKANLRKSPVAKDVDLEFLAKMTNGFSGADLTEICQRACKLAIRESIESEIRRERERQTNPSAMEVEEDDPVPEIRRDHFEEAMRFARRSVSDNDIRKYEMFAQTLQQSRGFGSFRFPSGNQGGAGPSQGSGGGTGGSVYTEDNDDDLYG
Procedure: To determine if inhibition by compound 2 requires a reactive thiol, the experiment was repeated with p97 except that various nucelophiles were included during the preincubation. […] To evaluate whether compound 2 modifies cysteine 522, inhibited p97 was digested with trypsin and peptides were fractionated by HPLC and analyzed by tandem mass spectrometry.

[4] = test system: HeLa cells; assay: Accumulation of high molecular weight ubiquitin conjugates (anti-ubiquitin immunoblot), HeLa cells; type: cell-based; conditions: 1 h at 37° C.
Text: (§1) To evaluate whether compound 2 can target p97 activity in cells, we sought to determine whether this compound induces accumulation of high molecular weight ubiquitin conjugates, since it is known that RNAi-mediated knockdown of p97 in mammalian cells has this effect (Wojcik, C. et al. J. Cell Sci. (2004) 117, 281-292). As a positive control for this experiment, the proteasome inhibitor MG132 was used. […] The cells were then harvested, lysed, and centrifuged to generate soluble and insoluble fractions. These fractions were then immunoblotted with anti-ubiquitin antibodies to detect accumulation of high molecular weight conjugates. Blots were also probed with anti-PSTAIRE antibodies as a loading control. […] This effect is particularly pronounced in the insoluble fraction.
(§2) To evaluate whether compound 8 can target p97 activity in cells, it was determined whether this compound induces accumulation of high molecular weight ubiquitin conjugates, since it is known that RNAi-mediated knockdown of p97 in mammalian cells has this effect (Wojcik, C. et al. J. Cell Sci. (2004) 117, 281-292). The proteasome inhibitor bortezomib (velcade) was employed as a positive control for this experiment. HeLa (FIG. 25) or RPMI8226 (FIG. 26) cells were treated with Velcade, compound 8, or a combination thereof for 1 h at 37° C. The cells were then harvested and cell lysates were immunoblotted with anti-ubiquitin antibodies to detect accumulation of high molecular weight conjugates. Blots were also probed with anti-PSTAIRE antibodies as a loading control.

[5] = test system: RPMI8226 cells; assay: Accumulation of high molecular weight ubiquitin conjugates (anti-ubiquitin immunoblot), RPMI8226 cells; type: cell-based; conditions: 1 h at 37° C.
Text: as §1, §2

[6] = test system: HeLa cell line that stably expresses UbG76V-GFP; assay: Accumulation of UbG76V-GFP in HeLa cells (fluorescence microscopy); type: cell-based
Procedure: As a control, the same cells were treated with the proteasome inhibitor MG132. In the latter set of experiments, a HeLa cell line that stably expresses UbG76V-GFP was transfected with either wild type (WT), D1 mutant (E305Q), D2 mutant (E578Q) or E305Q, E578Q double mutant (QQ) murine 97-pcDNA4.1 plasmid (0.05 μg/100 μL) in a 96-well plate. After 23 h, the intensity of UbG76V-GFP signal was measured on a Molecular Devices ImageXpress automated fluorescence microscope. […] The direct accumulation of Ub-G76V-GFP caused by compound 2 at 25 μM is 4-fold less than that caused by MG132 at 2 μM. This is likely due to the fact that only fully folded Ub-G76V-GFP should require p97 for degradation by the proteasome.
As a second test of whether compound 8 can inhibit p97 in vivo, it was evaluated whether it can cause accumulation of the UbG76V-GFP reporter. A HeLa cell line that stably expresses UbG76V-GFP was treated with compound 8 for 1 h at 37° C., and was then evaluated by fluorescence microscopy. As a control, the same cells were treated with the proteasome inhibitor MG132. […] The level of GFP fluorescence was quantified in cells treated with compound 8 at different doses and for different periods of time (FIG. 28).

[7] = test system: RPMI8226; assay: MTT cell growth assay, RPMI8226; type: cell-based; conditions: Homo sapiens, RPMI-8226, 48 or 72 h, read-out: Cell line inhibition of growth GI50 RPMI8226
Procedure: (§3) To probe further the effect of compound 2 and related compounds 1, 3, 5, 6 and 7, various concentrations of these compounds were added to 13 different cell lines and incubated for 48 or 72 h. An MTT assay was then performed to evaluate cell growth and survival.

[8] = test system: HTC116 WT; assay: MTT cell growth assay, HTC116 WT; type: cell-based; conditions: 48 or 72 h, read-out: Cell line inhibition of growth GI50 HTC116 WT
Procedure: as §3

[9] = test system: HCT116 p53−/−; assay: MTT cell growth assay, HCT116 p53−/−; type: cell-based; conditions: Homo sapiens, HCT-116, 48 or 72 h, read-out: Cell line inhibition of growth GI50 HCT116 p53−/−
Procedure: as §3

[10] = test system: LNCaP; assay: MTT cell growth assay, LNCaP; type: cell-based; conditions: Homo sapiens, 48 or 72 h, read-out: Cell line inhibition of growth GI50 LNCaP
Procedure: as §3

[11] = test system: MRC5-WT; assay: CellTiter-Glo growth inhibition, parental MRC5 cells; type: cell-based; conditions: Homo sapiens, 48 h at 37° C., read-out: Cell line inhibition of growth GI50 MRC5-WT
[12] = test system: MRC5-SV40; assay: CellTiter-Glo growth inhibition, MRC5 cells engineered to express SV40; type: cell-based

Chain of wild type murine p97 (Q01853 whole entry): as above

C=CC(=O)Nc1ncnc2c1c(-c1ccccc1)nn2C(C)(C)C [Compound 2]
IC50 ([1]; 200 nM p97, 20 min preincubation at 23° C., malachite green, read-out: In vitro ATP Hydrolysis Activity IC50 WT-mP97): 600 nM and 620 nM | inhibitory effect on p97 with nucleophiles in the preincubation ([1]; cysteine or dithiothreitol in the preincubation buffer): counteracted | IC50 ([2]; 20-minute preincubation): 105 ± 31 µM | NSF less sensitive than p97 ([2]; NSF vs p97): more than 100 fold | covalent modification of cysteine 522 [3]: formed a covalent adduct on cysteine 522 | accumulation of high molecular weight ubiquitin conjugates, HeLa cells [4]: caused accumulation of high molecular weight ubiquitin conjugates | accumulation of high molecular weight ubiquitin conjugates, RPMI8226 cells [5]: caused accumulation of high molecular weight ubiquitin conjugates | accumulation of UbG76V-GFP ([6]; 4 hours at 37° C., fluorescence microscopy): caused accumulation of UbG76V-GFP | direct accumulation of Ub-G76V-GFP, less than that caused by MG132 at 2 μM ([6]; compound at 25 μM vs MG132 at 2 μM): 4 fold | GI50 [7]: 400 ± 100 nM | GI50 [8]: 2400 ± 1200 nM | GI50 [9]: 2500 ± 1500 nM | GI50 [10]: 2700 ± 1200 nM | GI50 [11]: 17 ± 10 µM | GI50 ([12]; Homo sapiens, MRC5, 48 h at 37° C., CellTiter-Glo, read-out: Cell line inhibition of growth GI50 MRC5-SV40): 7.3 ± 5.5 µM | greater sensitivity of SV40-transformed cells than WT cell line ([12]; MRC5-SV40 vs MRC5-WT GI50): 2 fold
